Reference: patent US20260272850A1, “Cannabinoid Dosing Regime for Acne” (priority 2018, published 2026)
Where two headings read alike, the source gives them in different places.

Columns and labels:
[1] = system: rats; conditions: injected; cited from earlier work
[2] = system: skin of minipigs; experiment: 28-day study in minipigs: dermal tolerability and exposure; assay type: in vivo; conditions: no observed effect in minipigs
Procedure: This dose level is well below that tested and shown to be well-tolerated in a 28-day study in minipigs. Specifically, the NOAEL for dermal tolerability of BTX 1503 5% (w/w) on the skin of minipigs was 3.0 mg/cm^2/day (150 mg/kg/day), which is ~7.5 times the daily dose delivered in this study. In addition, based on the ratio of the mean Cmax observed in the 28-day minipig study to the mean Cmax in the 3 mL BID cohort in the Phase 1 a healthy volunteer study, there was >300 times the level of CBD, with no observed effect, in the minipigs.

[3] = target: human vanilloid receptor type 1 (VR1) (Homo sapiens, UniProt Q8NER1); conditions: in vitro; cited from earlier work
human vanilloid receptor type 1 (VR1), sequence (Q8NER1 whole entry): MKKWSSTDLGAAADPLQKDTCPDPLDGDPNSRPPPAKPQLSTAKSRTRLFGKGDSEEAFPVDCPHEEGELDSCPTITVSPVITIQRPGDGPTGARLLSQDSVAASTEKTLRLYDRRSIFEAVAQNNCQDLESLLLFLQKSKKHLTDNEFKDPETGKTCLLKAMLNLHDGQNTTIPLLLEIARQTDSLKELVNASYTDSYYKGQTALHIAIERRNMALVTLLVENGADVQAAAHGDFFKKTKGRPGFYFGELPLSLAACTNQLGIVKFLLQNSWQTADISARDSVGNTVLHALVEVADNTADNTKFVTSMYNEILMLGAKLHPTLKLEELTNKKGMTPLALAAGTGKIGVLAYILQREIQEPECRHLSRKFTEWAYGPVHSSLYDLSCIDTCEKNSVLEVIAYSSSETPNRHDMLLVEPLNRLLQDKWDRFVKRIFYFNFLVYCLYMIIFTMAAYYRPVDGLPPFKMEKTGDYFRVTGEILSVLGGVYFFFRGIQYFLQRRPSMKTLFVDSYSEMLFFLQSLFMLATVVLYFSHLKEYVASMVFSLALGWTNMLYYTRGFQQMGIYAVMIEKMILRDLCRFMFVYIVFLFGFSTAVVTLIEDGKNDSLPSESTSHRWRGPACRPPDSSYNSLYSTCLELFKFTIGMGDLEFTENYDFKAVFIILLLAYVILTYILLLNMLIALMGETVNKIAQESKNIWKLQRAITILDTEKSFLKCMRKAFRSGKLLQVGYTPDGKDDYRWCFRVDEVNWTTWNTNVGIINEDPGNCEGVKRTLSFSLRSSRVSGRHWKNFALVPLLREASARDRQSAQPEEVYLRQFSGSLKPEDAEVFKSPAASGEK

[4] = Open-label study in patients with acne vulgaris: study drug (CBD) plasma levels; assay type: in vivo, human; conditions: throughout the study, 225 mg CBD/day topical
Source text: Subjects returned to the clinic on Day 14 for vital signs, cutaneous tolerability assessments, and a blood draw for study drug plasma levels. Subjects were also queried for adverse events (AEs) and changes in concomitant medications. Diaries and study drug were returned and reviewed for compliance. In addition, the subject applied their morning dose of study drug during the visit for the clinical site to confirm correct application techniques. Another 14 days of study drug were dispensed along with the diary for the last two weeks of study drug treatment. […]
Safety was the primary outcome measure. The safety outcomes were measured through assessment of: • AEs monitored from time of consent through the end of study. • Cutaneous tolerability (erythema, scaling, dryness, burning/stinging, and irritant/allergic contact dermatitis) collected at Baseline, Day 14, Day 28, and Day 35 and graded using the following scale: 0, None; 1, Slight; 2, Moderate; 3, Severe. • Vital signs (temperature, blood pressure, and pulse) obtained at Baseline, Day 14, Day 28 and Day 35. • Complete blood count (CBC), chemistry, and urinalysis at Baseline and at Day 28. Blood levels of study drug will be measured at Baseline and prior to dosing (trough level) on Day 14, Day 28, and Day 35. […]

[5] = system: sensitized guinea-pigs; conditions: intravenous administration; cited from earlier work
[6] = system: immortalized human sebocytes; conditions: cited from earlier work
[7] = Healthy volunteer study of single and multiple-dose BTX 1503 5% Solution (BTX.2017.001): pharmacokinetics; assay type: in vivo, human (healthy volunteers); conditions: for Tmax: Day 1; for Cmax: topical or ocular, topical, Day 1, plasma CBD, read-out: mean Cmax after the first dose
Procedure: The pharmacokinetics (PK) of single and multiple-dose administration of BTX 1503 5% Solution were evaluated in a healthy volunteer study. In this study, BTX 1503 5% Solution was applied as a single dose either QD or BID (12 hrs apart) on Day 1 followed by a 6-day washout period, then either QD or BID for 14 days (Day 8 to Day 21). Five subjects were enrolled in each cohort and doses were escalated for each sequential cohort enrolled with the following doses. • Cohort 1: 37.5 mg CBD/day or 0.066 mg/cm^2/day applied as 1 mL of BTX 1503 5% (w/w) QD • Cohort 2: 75 mg CBD/day or 0.133 mg/cm^2/day applied as 1 mL BTX 1503 5% (w/w) BID • Cohort 3: 112.5 mg CBD/day or 0.199 mg/cm^2/day applied as 3 mL of BTX 1503 5% (w/w) QD • Cohort 4: 225 mg CBD/day or 0.398 mg/cm^2/day applied as 3 mL of BTX 1503 5% (w/w) BID Area of application assumed to be 565 cm^2 (i.e., on the face), which is reported by the European Union Scientific Committee on Consumer Safety (SCCS) to be half of the surface area for a female head (SCCS Notes of Guidance for the Testing of Cosmetic Substances and Their Safety Evaluation, 8th edition, 2012; Table 2).
Blood samples were taken for PK assessments on Day 1 (Baseline) at pre-dose (15 mins before dosing), 30, 60 and 90 mins and 2, 2.5, 3, 4, 6, 8 and 12 hrs, and 24 hrs after the first single dose. For participants that received BID dosing, samples were also taken at 30, 60 and 90 mins and 2, 2.5, 3, 4, 6, and 8 hrs after the second dose on Day 1.
During the multiple dose (14-day) phase, trough levels were obtained before the morning application on Day 15. On Day 21, blood samples were taken for PK assessments at pre-dose (15 mins before dosing), 30, 60 and 90 mins and 2, 2.5, 3, 4, 6, 8 and 12 hrs, 24 hrs and 48 hrs after the morning dose. For participants that received BID dosing, samples were also be taken at 30, 60 and 90 mins and 2, 2.5, 3, 4, 6, and 8 hrs after the second dose on Day 21. A sample was obtained on Day 23, 48 hrs after the last morning dose.

[8] = Franz-type diffusion cell skin permeation of CBD from BTX 1503 5% Solution; assay type: in vitro ADME; conditions: 48 hours; equivalent of ng/g of tissue
Procedure: Dermatomed skin from a single donor was mounted in a Franz-type diffusion cell (0.55 cm^2 receptor fluid exposure surface area) and dosed with 5 ul of 2-[3-methyl-6-(1-methylethenyl)-2-cyclohexen-1-yl]-5-pentyl-1,3-benzenediol (CBD), BTX 1503 5% Solution, formulated in an mixture of a volatile solvent (hexylmethyldisiloxane/polymethylsiloxane—93% w/w), and residual solvent (arlamol E—2% w/w) at a concentration of 5.0% (w/w; 35.5 mg/ml). Following dosing, receptor phase samples were collected at 4, 10, 24 and 48 hours; after which the study was terminated.
The residual formulation was removed by tape stripping and the epidermis and dermis separated by blunt dissection. The levels of CBD in the epidermis, dermis, and receptor fluid samples were then analyzed using a bioanalytical method with LC-MS/MS detection.

In the case of `C=C(C)C1CCC(C)=CC1c1c(O)cc(CCCCC)cc1O` (centres unmarked) [CBD, 2-[3-methyl-6-(1-methylethenyl)-2-cyclohexen-1-yl]-5-pentyl-1,3-benzenediol], the “effect on cardiac inflammation” value [1] is listed as “attenuated cardiac inflammation”, the “ratio of mean Cmax in 28-day minipig study to mean Cmax in 3 mL BID healthy volunteer cohort” value [2] is listed as > 300 times and the “effect on VR1” value [3] is listed as “stimulate”. The “Study drug (CBD) plasma levels” value [4] was “low”, the “effect on airway obstruction” value [5] was “reduced airway obstruction” and the effects on sebocytes [6] was “lipostatic, anti-proliferative, and anti-inflammatory effects”. The “mean pre-dose level on Day 21” value ([7]; Cohort 1) was 0.545 ng/mL, the “mean pre-dose level on Day 21” value ([7]; Cohort 2) was 0.770 ng/mL and the “mean pre-dose level on Day 21” value ([7]; Cohort 3) was 0.715 ng/mL. For the same compound, the “mean pre-dose level on Day 21” value ([7]; Cohort 4) was 1.553 ng/mL, the concentration at 15 study day ([7]; human, in vivo, 75 mg CBD/day, Cohort 2, 75 mg CBD/day, multiple dose phase, read-out: mean CBD trough level on Day 15) was 0.781 ng/mL and the concentration at 15 study day ([7]; human, in vivo, 112.5 mg CBD/day, Cohort 3, 112.5 mg CBD/day, multiple dose phase, read-out: mean CBD trough level on Day 15) was 0.525 ng/mL. It also gave a concentration at 15 study day ([7]; human, in vivo, 225 mg CBD/day, Cohort 4, 225 mg CBD/day, multiple dose phase, all subjects, read-out: mean CBD trough level on Day 15) of 2.11 ng/mL, a concentration at 15 study day ([7]; human, in vivo, 225 mg CBD/day, Cohort 4, one outlier, read-out: CBD trough level on Day 15, outlier subject) of 5.99 ng/mL and a concentration at 15 study day ([7]; human, in vivo, 225 mg CBD/day, Cohort 4, without the outlier subject, read-out: mean CBD trough level on Day 15) of 1.16 ng/mL. For the same compound, the Tmax ([7]; human, in vivo, after BID dosing) was 18 to 20 h, the Tmax ([7]; human, in vivo, after QD dosing) was 12 h and the concentration at 7 days ([7]; human, in vivo, all cohorts, study Day 8, seven days after initial dosing, read-out: Levels of CBD (below the limits of quantitation)) was < 0.2 ng/mL. For the same compound, the Cmax ([7]; human, in vivo, Cohort 1: 37.5 mg CBD/day, 1 mL BTX 1503 5% QD) was 0.309 ng/mL, the Cmax ([7]; human, in vivo, Cohort 2: 75 mg CBD/day, 1 mL BTX 1503 5% BID) was 0.562 ng/mL and the Cmax ([7]; human, in vivo, Cohort 3: 112.5 mg CBD/day, 3 mL BTX 1503 5% QD) was 0.626 ng/mL. The Cmax ([7]; human, in vivo, Cohort 4: 225 mg CBD/day, 3 mL BTX 1503 5% BID) was 0.876 ng/mL and the dermis concentration [8] was ~ 1,933 ng/mL.
